Measured values as given in patent US20260265265A1, “NOVEL BENZIMIDAZOLONE DERIVATIVE COMPOUND AS AUTOTAXIN INHIBITOR” (LG CHEM, LTD., priority 2023, published 2026).

Target: T1, Recombinant Human ENPP-2/Autotaxin (Homo sapiens, UniProt Q13822)
T1 construct: purchased R&D systems 5255-EN
Test: LysoPLD activity measurement (autotaxin enzyme inhibition, choline release, TOOS reagent)
Type: biochemical
Settings: LysoPLD inhibitory activity; substrate 14:0 LysoPC; absorbance at 555 nm
Outline: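 Autotaxin lysoPLD activity was read as choline released from 14:0 LysoPC, detected by TOOS reagent absorbance. Compound was preincubated 30 min, then substrate diluted to 300 μM was added and the reaction ran 90 minutes at 37° C. Controls contained 1% DMSO.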

IC50 | Structure (SMILES)
0.01 to 0.1 µM | O=C(O)c1c(F)ccc(Cn2c(=O)n(-c3ccc(N4CCOCC4)cc3)c3c(F)c(Cl)ccc32)c1F [Example 204, 3-((5-chloro-4-fluoro-3-(4-morpholinophenyl)-2-oxo-2,3-dihydro-1H-benzo[d]imidazol-1-yl)methyl)-2,6-difluorobenzoic acid]
< 0.01 µM | O=C(O)c1cccc(C2(n3c(=O)n(-c4ccc(C5CCOCC5)cc4)c4cc(Cl)cnc43)CC2)c1 [Example 220, 3-(1-(6-chloro-2-oxo-1-(4-(tetrahydro-2H-pyran-4-yl)phenyl)-1,2-dihydro-3H-imidazo[4,5-b]pyridin-3-yl)cyclopropyl)benzoic acid]
0.01 to 0.1 µM | O=C(O)c1cccc(C2(n3c(=O)n(-c4ccc(N5CC6(CCC6)C5)cc4)c4cc(Cl)ccc43)CC2)c1 [Example 184, 3-(1-(3-(4-(2-azaspiro[3.3]heptan-2-yl)phenyl)-5-chloro-2-oxo-2,3-dihydro-1H-benzo[d]imidazol-1-yl)cyclopropyl)benzoic acid]
< 0.01 µM | O=C(O)c1cccc(C2(n3c(=O)n(-c4ccc(S(=O)(=O)N5CCCC5)cc4)c4cc(Cl)ccc43)CC2)c1 [Example 215, 3-(1-(5-chloro-2-oxo-3-(4-(pyrrolidin-1-ylsulfonyl)phenyl)-2,3-dihydro-1H-benzo[d]imidazol-1-yl)cyclopropyl)benzoic acid]
< 0.01 µM | O=C(O)c1cccc(C2(n3c(=O)n(-c4ccc(C(=O)N5CCCC5)cc4)c4cc(Cl)cnc43)CC2)c1F [Example 231, 3-(1-(6-chloro-2-oxo-1-(4-(pyrrolidine-1-carbonyl)phenyl)-1,2-dihydro-3H-imidazo[4,5-b]pyridin-3-yl)cyclopropyl)-2-fluorobenzoic acid]
0.01 to 0.1 µM | CC(C)(F)Cc1ccc(-n2c(=O)n(C3(c4cccc(C(=O)O)c4)CC3)c3ccc(Cl)cc32)cc1 [Example 217, 3-(1-(5-chloro-3-(4-(2-fluoro-2-methylpropyl)phenyl)-2-oxo-2,3-dihydro-1H-benzo[d]imidazol-1-yl)cyclopropyl)benzoic acid]
< 0.01 µM | O=C(O)c1cccc(C2(n3c(=O)n(-c4ccc(C5CCOC5)cc4)c4cc(Cl)ccc43)CC2)c1F (stereo not drawn) [Example 250, 3-(1-(5-chloro-2-oxo-3-(4-(tetrahydrofuran-3-yl)phenyl)-2,3-dihydro-1H-benzo[d]imidazol-1-yl)cyclopropyl)-2-fluorobenzoic acid]
< 0.01 µM | CC1(C)COC(=O)N1c1ccc(-n2c(=O)n(C3(c4cccc(C(=O)O)c4)CC3)c3ccc(Cl)cc32)cc1 [Example 242, 3-(1-(5-chloro-3-(4-(4,4-dimethyl-2-oxooxazolidin-3-yl)phenyl)-2-oxo-2,3-dihydro-1H-benzo[d]imidazol-1-yl)cyclopropyl)benzoic acid]
< 0.01 µM | O=C(O)c1cccc(C2(n3c(=O)n(-c4ccc(CN5CCCC5=O)cc4)c4cc(Cl)ccc43)CC2)c1 [Example 236, 3-(1-(5-chloro-2-oxo-3-(4-((2-oxopyrrolidin-1-yl)methyl)phenyl)-2,3-dihydro-1H-benzo[d]imidazol-1-yl)cyclopropyl)benzoic acid]
0.1 to 1 µM | Cc1ccc(-n2c(=O)n(Cc3cccc(C(=O)O)c3)c3ccc(Cl)cc32)cc1 [Example 8, 3-((5-chloro-2-oxo-3-(p-tolyl)-2,3-dihydro-1H-benzo[d]imidazol-1-yl)methyl)benzoic acid]
0.01 to 0.1 µM | O=C(O)c1cccc(Cn2c(=O)n(-c3ccc(N4CCN(C(=O)C5CC5)CC4)cc3)c3cc(Cl)ccc32)c1 [Example 95, 3-((5-chloro-3-(4-(4-(cyclopropanecarbonyl)piperazin-1-yl)phenyl)-2-oxo-2,3-dihydro-1H-benzo[d]imidazol-1-yl)methyl)benzoic acid]
< 0.01 µM | C[C@H]1COCCN1C(=O)c1ccc(-n2c(=O)n(C3(c4cccc(C(=O)O)c4)CC3)c3ccc(Cl)cc32)cc1 [Example 127, (S)-3-(1-(5-chloro-3-(4-(3-methylmorpholine-4-carbonyl)phenyl)-2-oxo-2,3-dihydro-1H-benzo[d]imidazol-1-yl)cyclopropyl)benzoic acid]
< 0.01 µM | CC(C)(O)c1ccc(-n2c(=O)n(C3(c4cccc(C(=O)O)c4)CC3)c3ccc(Cl)cc32)cc1 [Example 246, 3-(1-(5-chloro-3-(4-(2-hydroxypropane-2-yl)phenyl)-2-oxo-2,3-dihydro-1H-benzo[d]imidazol-1-yl)cyclopropyl)benzoic acid]
0.01 to 0.1 µM | O=C(O)c1cccc(Cn2c(=O)n(-c3ccc(N4CCN(C(=O)C5CC5)CC4)cc3)c3cc(Cl)ccc32)c1F [Example 140, 3-((5-chloro-3-(4-(4-(cyclopropanecarbonyl)piperazin-1-yl)phenyl)-2-oxo-2,3-dihydro-1H-benzo[d]imidazol-1-yl)methyl)-2-fluorobenzoic acid]
0.01 to 0.1 µM | C[C@H]1CN(C(=O)Cc2ccc(-n3c(=O)n(C4(c5cccc(C(=O)O)c5)CC4)c4ccc(Cl)cc43)cc2)CCO1 [Example 176, (S)-3-(1-(5-chloro-3-(4-(2-(2-methylmorpholino)-2-oxoethyl)phenyl)-2-oxo-2,3-dihydro-1H-benzo[d]imidazol-1-yl)cyclopropyl)benzoic acid]
< 0.01 µM | C[C@H]1COCCN1C(=O)c1ccc(-n2c(=O)n(C3(c4cccc(C(=O)O)c4F)CC3)c3ccc(Cl)cc32)cc1 [Example 136, (S)-3-(1-(5-chloro-3-(4-(3-methylmorpholine-4-carbonyl)phenyl)-2-oxo-2,3-dihydro-1H-benzo[d]imidazol-1-yl)cyclopropyl)-2-fluorobenzoic acid]
< 0.01 µM | CN(C)S(=O)(=O)c1ccc(-n2c(=O)n(C3(c4cccc(C(=O)O)c4)CC3)c3ccc(Cl)cc32)cc1 [Example 210, 3-(1-(5-chloro-3-(4-(N,N-dimethylsulfamoyl)phenyl)-2-oxo-2,3-dihydro-1H-benzo[d]imidazol-1-yl)cyclopropyl)benzoic acid]
< 0.01 µM | CN(C)C(=O)c1ccc(-n2c(=O)n(Cc3cccc(C(=O)O)c3)c3c(F)cc(Cl)cc32)cc1 [Example 54, 3-((5-chloro-3-(4-(dimethylcarbamoyl)phenyl)-7-fluoro-2-oxo-2,3-dihydro-1H-benzo[d]imidazol-1-yl)methyl)benzoic acid]
0.1 to 1 µM | O=C(O)c1cccc(Cn2c(=O)n(-c3ccc(C(F)(F)F)cc3)c3cc(Cl)ccc32)c1 [Example 4, 3-((5-chloro-2-oxo-3-(4-(trifluoromethyl)phenyl)-2,3-dihydro-1H-benzo[d]imidazol-1-yl)methyl)benzoic acid]
0.01 to 0.1 µM | O=C(O)c1cccc(C2(n3c(=O)n(-c4ccc(CN5CCOCC5)cc4)c4cc(Cl)ccc43)CC2)c1 [Example 145, 3-(1-(5-chloro-3-(4-(morpholinomethyl)phenyl)-2-oxo-2,3-dihydro-1H-benzo[d]imidazol-1-yl)cyclopropyl)benzoic acid]
0.1 to 1 µM | O=C(O)c1cccc(Cn2c(=O)n(-c3ccc(N4CCC(F)(F)C4)nc3)c3cc(Cl)ccc32)c1 [Example 80, 3-((5-chloro-3-(6-(3,3-difluoropyrrolidin-1-yl)pyridin-3-yl)-2-oxo-2,3-dihydro-1H-benzo[d]imidazol-1-yl)methyl)benzoic acid]
0.1 to 1 µM | O=C(O)c1ccc(Cn2c(=O)n(-c3ccc(N4CCOCC4)cc3)c3c(F)c(Cl)ccc32)cc1 [Example 125, 4-((5-chloro-4-fluoro-3-(4-morpholinophenyl)-2-oxo-2,3-dihydro-1H-benzo[d]imidazol-1-yl)methyl)benzoic acid]
< 0.01 µM | O=C(O)c1cccc(C2(n3c(=O)n(-c4ccc(C(=O)N5CCC(F)(F)CC5)cc4)c4cc(Cl)ccc43)CC2)c1 [Example 131, 3-(1-(5-chloro-3-(4-(4,4-difluoropiperidine-1-carbonyl)phenyl)-2-oxo-2,3-dihydro-1H-benzo[d]imidazol-1-yl)cyclopropyl)benzoic acid]
< 0.01 µM | O=C(O)c1cccc(C2(n3c(=O)n(-c4ccc(N5CC(F)(F)C5)cc4)c4cc(Cl)ccc43)CC2)c1 [Example 185, 3-(1-(5-chloro-3-(4-(3,3-difluoroazetidin-1-yl)phenyl)-2-oxo-2,3-dihydro-1H-benzo[d]imidazol-1-yl)cyclopropyl)benzoic acid]
0.01 to 0.1 µM | O=C(O)c1cccc(Cn2c(=O)n(-c3ccc(N4CCOCC4)nc3)c3cc(Cl)ccc32)c1 [Example 78, 3-((5-chloro-3-(6-morpholinopyridin-3-yl)-2-oxo-2,3-dihydro-1H-benzo[d]imidazol-1-yl)methyl)benzoic acid]
0.1 to 1 µM | CN(C)C(=O)c1ccc(-n2c(=O)n(CCc3cccc(C(=O)O)c3)c3ccc(Cl)cc32)cc1 [Example 113, 3-(2-(5-chloro-3-(4-(dimethylcarbamoyl)phenyl)-2-oxo-2,3-dihydro-1H-benzo[d]imidazol-1-yl)ethyl)benzoic acid]
< 0.01 µM | O=C(O)c1cccc(C2(n3c(=O)n(-c4ccc(N5CC(O)C5)cc4)c4cc(Cl)ccc43)CC2)c1 [Example 159, 3-(1-(5-chloro-3-(4-(3-hydroxyazetidin-1-yl)phenyl)-2-oxo-2,3-dihydro-1H-benzo[d]imidazol-1-yl)cyclopropyl)benzoic acid]
0.1 to 1 µM | O=C(O)c1cccc(Cn2c(=O)n(-c3ccc(N4CCC(F)(F)C4)cc3)c3c(F)c(Cl)ccc32)c1 [Example 105, 3-((5-chloro-3-(4-(3,3-difluoropyrrolidin-1-yl)phenyl)-4-fluoro-2-oxo-2,3-dihydro-1H-benzo[d]imidazol-1-yl)methyl)benzoic acid]
< 0.01 µM | O=C(O)c1cc(F)cc(C2(n3c(=O)n(-c4ccc(N5CCOCC5)cc4)c4cc(Cl)ccc43)CC2)c1 [Example 187, 3-(1-(5-chloro-3-(4-morpholinophenyl)-2-oxo-2,3-dihydro-1H-benzo[d]imidazol-1-yl)cyclopropyl)-5-fluorobenzoic acid]
0.01 to 0.1 µM | O=C(O)c1cccc(Cn2c(=O)n(-c3ccc(N4CCC(F)(F)CC4)nc3)c3cc(Cl)ccc32)c1 [Example 82, 3-((5-chloro-3-(6-(4,4-difluoropiperidin-1-yl)pyridin-3-yl)-2-oxo-2,3-dihydro-1H-benzo[d]imidazol-1-yl)methyl)benzoic acid]
